Assay results published in patent US6383773B2, “Penicillin conversion” (Massachusetts Institute of Technology, priority 1998, dated 2002).

Legend:
[1] = molecular target: T1, S. clavuligerus expandase (Streptomyces clavuligerus, UniProt P18548); assay: Penicillin ring expansion by cell-free S. clavuligerus expandase extracts, paper disc-agar diffusion bioassay; type: biochemical; conditions: for DAOG: cell-free extract
T1 construct: endogenous in cells; host or cells: S. clavuligerus mutant NP1, crude cell-free extract
Procedure: Preparation of Cell-free Extracts: Fermentation broths were centrifuged at 8,000×g and 4° C. for 10 min. Pellets were washed twice using 50 mM Tris-HCI supplemented with 0.1 mM dithiothreitol (DTT). The cells were resuspended in the same buffer and disrupted by four 25-sec. sonication treatments (power setting 5 and duty cycle 50%), in an ice-water bath using a Branson 350 sonifier (Branson Sonic Power Co., Danbury, Conn.). Cell debris was removed by centrifugation (14,000×g, 30 min., 4° C.). The resulting extracts containing 8-10 mg protein/ml were placed on ice and utilized immediately. Protein concentrations were measured using the Bio-Rad protein assay (Bio-Rad, Hercules, Calif.). Bovine serum albumin was used as standard.
Ring Expansion Reaction: We defined ring expansion reaction conditions as modifications of the standard reaction mixture for expandase reactions described by Maeda et al. (Maeda et al., Enzyme Microb. Technol. 17:231-34, 1995) except that penicillin G was used a substrate instead of penicillin N. Additions were made following the order established by Shen et al. (Shen et al., Enzyme Microb. Technol. 6:402-404, 1984. Reaction mixtures were incubated in test tubes (cell-free extract) or 250 ml baffled flasks (resting cells) at 220 rpm, 30° C. Reactions containing the protein extract were stopped at various times (see Table 1 and Figure Legends) by mixing 0.5 ml of assay solution with 0.5 ml of methanol. In the case of resting cells, samples were centrifuged to remove cells and supernatants were transferred to new tubes. Expandase activity was detected by paper disc-agar diffusion bioassay.
Detection of Expandase Activity: As mentioned above, expandase activity was detected by assaying production of a growth-inhibitory zone in a paper disc-agar diffusion bioassay. Paper discs were saturated with 200 μl of the reaction mixture (cell-free extracts or supernatant (resting cells) as follows. Two discs were superimposed and four 50 μl samples were applied. After each application, the discs were allowed to dry for 20 min at 37° C. under a laminar hood and, finally, they were placed on LB (1% tryptone, 0.5% NaCl, 0.5% yeast extract, 0.1% glucose) 0.8% agar medium seeded with E. coli ESS (a β-lactam supersensitive mutant), and the plates were incubated overnight at 37° C. The formation of DAOG and/or other cephalosporin(s) was determined by including 50,000 IU/ml of penicillinase (Difco Bacto penase concentrate, Difco Laboratories, Detroit, Mich.) in the assay plates. This penicillinase is a narrow spectrum β-lactamase that attacks penicillins but not cephalosporins. The diameters of zones of growth inhibition were measured and quantified with a calibration curve using DAOG as standard.
Ring Expansion of Other Penicillins by Cell-free Extracts: We tested our reaction conditions for their ability to support ring expansion on other penicillin substrates and found detectable expansion with each of the 15 substrates that we tested. […] The reactions contained 4 mg/ml extract (protein concentration), 50 mM Tris-HCl pH 7.4, 1.8 mM FeSO4, 1.28 mM α-ketoglutarate, 8 mM MgSO4, 8 mM KCl, 4 mM ascorbic acid, 14 mM DTT, and 2 mg/ml substrate (except for penicillin mX and octanoyl-6-APA, which were used at 3 mg/ml). Samples were centrifuged at 12K rpm for 5 minutes after 2 hours of reaction. 250 μl of reaction mixture was used in each bioassay.

[2] = molecular target: T2, expandase from N. lactamdurans (Amycolatopsis lactamdurans, UniProt Q03047); assay: Ring expansion by cell-free extracts of S. lividans containing pUL702-202a (Example 7); type: biochemical; conditions: S. lividans pUL702-202a cell-free extract 6 mg/ml protein, substrate 5.6 mM, after 2 h of reaction
T2 construct: made in house; host or cells: S. lividans 1326 transformed with pUL702-202a, crude cell-free extract
Procedure: Microorganism, Medium and Culture Conditions: S. lividans 1326 was used in all experiments. Cultures were grown in 250 ml baffled flasks containing 40 ml of MST medium. Each flask was inoculated with 50 μl of a spore suspension (prepared and stored at −80° C. in 20% glycerol) and incubated at 30° C., 250 rpm, for 48 h.
Plasmids: The plasmid pUL702-202a was a gift from J. F. Martin (University of León, Spain). This vector harboured a 4.3 Kb BglII fragment containing the epimerase and expandase genes from Nocardia lactamdurans inserted at the BglII site on pIJ702. The plasmid pHJ11 was constructed by cloning a 3 Kb BglII fragment containing the expandase gene from S. clavuligerus 3585 into pIJ702 at the BglII site.
Ring Expansion Reaction: The ring expansion mixture contained 1.8 mM FeSO4, 1.28 mM α-ketoglutarate, 6 mg/ml protein (cell-free extract), 8 mM KCl, 8 mM MgSO4, 14 mM DTT and 50 mM TrisHCl (pH 7.4) in a final volume of 2.5 ml. Substrate concentration was 5.6 mM. Additions were made following the order established by Shen et al. (Enzyme Microb. Technol. 6:402-404, 1984). Reaction mixtures were incubated in test tubes at 220 rpm, 30° C. At different times, 0.5 ml samples were taken and the reaction was stopped by adding 0.5 ml of methanol. […] Biotransformation activity was detected by paper disc-agar diffusion bioassay. […]

T1 sequence (P18548 whole entry, the tested form may be a part): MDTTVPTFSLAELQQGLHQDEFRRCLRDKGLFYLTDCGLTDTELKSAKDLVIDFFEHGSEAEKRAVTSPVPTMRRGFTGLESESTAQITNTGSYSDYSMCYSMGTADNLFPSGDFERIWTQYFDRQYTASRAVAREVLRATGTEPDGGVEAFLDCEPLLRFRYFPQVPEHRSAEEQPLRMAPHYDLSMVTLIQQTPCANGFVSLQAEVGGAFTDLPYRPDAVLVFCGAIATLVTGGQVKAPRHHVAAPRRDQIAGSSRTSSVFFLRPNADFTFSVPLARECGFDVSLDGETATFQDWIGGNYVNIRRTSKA
T2 sequence (Q03047 whole entry): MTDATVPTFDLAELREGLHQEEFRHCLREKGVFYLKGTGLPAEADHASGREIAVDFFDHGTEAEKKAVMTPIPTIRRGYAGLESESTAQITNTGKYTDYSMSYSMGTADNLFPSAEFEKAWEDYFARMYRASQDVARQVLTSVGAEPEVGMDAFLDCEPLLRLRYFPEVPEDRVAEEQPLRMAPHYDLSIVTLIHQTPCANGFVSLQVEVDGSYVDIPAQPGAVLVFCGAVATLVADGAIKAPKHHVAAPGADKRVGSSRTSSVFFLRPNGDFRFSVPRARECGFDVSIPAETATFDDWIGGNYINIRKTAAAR

CC1(C)S[C@@H]2[C@H](NC(=O)Cc3ccccc3)C(=O)N2[C@H]1C(=O)O [Penicillin G, penicillin G]
Ring expansion, size of zones of inhibition ([1]; 4 mg/ml extract protein, 2 mg/ml substrate (penicillin mX and octanoyl-6-APA 3 mg/ml), 2 hours): Large zones of inhibition
Inhibition Zone Diameter ([1]; 4 mg/ml extract protein, 2 mg/ml substrate, 2 hours of reaction, 250 μl in bioassay (E. coli ESS, penicillinase)): 29 mm
DAOG ([1]; protein 1 mg/ml, FeSO4 0.036 mM, α-ketoglutarate 0.64 mM, penicillin G 0.1 mg/ml): <2 µg/mL
DAOG ([1]; protein 1 mg/ml, FeSO4 0.036 mM, α-ketoglutarate 0.64 mM, penicillin G 0.3 mg/ml): <2 µg/mL
DAOG ([1]; protein 1 mg/ml, FeSO4 0.036 mM, α-ketoglutarate 0.64 mM, penicillin G 1 mg/ml): 2.1 µg/mL
DAOG ([1]; protein 1 mg/ml, FeSO4 1.8 mM, α-ketoglutarate 1.28 mM, penicillin G 0.1 mg/ml): <2 µg/mL
DAOG ([1]; protein 1 mg/ml, FeSO4 1.8 mM, α-ketoglutarate 1.28 mM, penicillin G 0.3 mg/ml): <2 µg/mL
DAOG ([1]; protein 1 mg/ml, FeSO4 1.8 mM, α-ketoglutarate 1.28 mM, penicillin G 1 mg/ml): 2.1 µg/mL
DAOG ([1]; protein 2 mg/ml, FeSO4 0.036 mM, α-ketoglutarate 0.64 mM, penicillin G 0.1 mg/ml): <2 µg/mL
DAOG ([1]; protein 2 mg/ml, FeSO4 0.036 mM, α-ketoglutarate 0.64 mM, penicillin G 0.3 mg/ml): 2.1 µg/mL
DAOG ([1]; protein 2 mg/ml, FeSO4 0.036 mM, α-ketoglutarate 0.64 mM, penicillin G 1 mg/ml): 2.6 µg/mL
DAOG ([1]; protein 2 mg/ml, FeSO4 1.8 mM, α-ketoglutarate 1.28 mM, penicillin G 0.1 mg/ml): 2.1 µg/mL
DAOG ([1]; protein 2 mg/ml, FeSO4 1.8 mM, α-ketoglutarate 1.28 mM, penicillin G 0.3 mg/ml): 2.3 µg/mL
DAOG ([1]; protein 2 mg/ml, FeSO4 1.8 mM, α-ketoglutarate 1.28 mM, penicillin G 1 mg/ml): 3.4 µg/mL
DAOG ([1]; protein 4 mg/ml, FeSO4 0.036 mM, α-ketoglutarate 0.64 mM, penicillin G 0.1 mg/ml): 2.3 µg/mL
DAOG ([1]; protein 4 mg/ml, FeSO4 0.036 mM, α-ketoglutarate 0.64 mM, penicillin G 0.3 mg/ml): 2.6 µg/mL
DAOG ([1]; protein 4 mg/ml, FeSO4 0.036 mM, α-ketoglutarate 0.64 mM, penicillin G 1 mg/ml): 3.4 µg/mL
DAOG ([1]; protein 4 mg/ml, FeSO4 1.8 mM, α-ketoglutarate 1.28 mM, penicillin G 0.1 mg/ml): 2.8 µg/mL
DAOG ([1]; protein 4 mg/ml, FeSO4 1.8 mM, α-ketoglutarate 1.28 mM, penicillin G 0.3 mg/ml): 3.4 µg/mL
DAOG ([1]; protein 4 mg/ml, FeSO4 1.8 mM, α-ketoglutarate 1.28 mM, penicillin G 1 mg/ml): 5.6 µg/mL
production of cephalosporins [2]: approximately 8 μg/ml
